In the supplement of paper PMC10307832:

Assays:
Assay in all cases: relative viability (nuclei count vs DMSO), 5 days (fraction); higher = more cells survive
BGJ398 + Trametinib = compound: CCN1CCN(c2ccc(Nc3cc(N(C)C(=O)Nc4c(Cl)c(OC)cc(OC)c4Cl)ncn3)cc2)CC1 [BGJ398] + CC(=O)Nc1cccc(-n2c(=O)n(C3CC3)c(=O)c3c(Nc4ccc(I)cc4F)n(C)c(=O)c(C)c32)c1 [Trametinib] (partner 0.02 µM)
Procedure, shortened: (§1)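 Each reported value is a median over duplicate plates. It expresses relative viability: treated-well nuclei count divided by vehicle-well nuclei count. Lung cancer cell lines in 1536-well plates were dosed by pin tool a day after seeding, alone with one drug or with a fixed anchor-drug dose plus five library-drug doses (not always all listed) in √10 steps, and nuclei were counted after 5 days.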

[1] = compound: C1=CC2=NC=CN=C2C=C1/C=C/3\C(=O)NC(=O)S3 + O=C(CCCCCCC(=O)Nc1ccccc1)NO [Vorinostat] (partner 1 µM)
Procedure, shortened: as §1

BGJ398 + Navitoclax = compound: CCN1CCN(c2ccc(Nc3cc(N(C)C(=O)Nc4c(Cl)c(OC)cc(OC)c4Cl)ncn3)cc2)CC1 [BGJ398] + CC1(C)CCC(c2ccc(Cl)cc2)=C(CN2CCN(c3ccc(C(=O)NS(=O)(=O)c4ccc(N[C@H](CCN5CCOCC5)CSc5ccccc5)c(S(=O)(=O)C(F)(F)F)c4)cc3)CC2)C1 [Navitoclax] (partner 0.5 µM)
Procedure, shortened: as §1

[2] = compound: C1=CC2=NC=CN=C2C=C1/C=C/3\C(=O)NC(=O)S3 + COc1cc2c(Oc3ccc(NC(=O)C4(C(=O)Nc5ccc(F)cc5)CC4)cc3F)ccnc2cc1OCCCN1CCOCC1 [Foretinib] (partner 0.25 µM)
Procedure, shortened: as §1

Cell Line	relative viability (BGJ398 + Trametinib; first compound 0.01 µM)	relative viability (BGJ398 + Trametinib; first compound 0.03162 µM)	relative viability (BGJ398 + Trametinib; first compound 0.1 µM)	relative viability (BGJ398 + Trametinib; first compound 0.3162 µM)	relative viability (BGJ398 + Trametinib; first compound 1 µM)	relative viability ([1]; first compound 0.02 µM)	relative viability ([1]; first compound 0.06325 µM)	relative viability ([1]; first compound 0.2 µM)	relative viability ([1]; first compound 0.6325 µM)	relative viability ([1]; first compound 2 µM)	relative viability (BGJ398 + Navitoclax; first compound 0.01 µM)	relative viability (BGJ398 + Navitoclax; first compound 0.03162 µM)	relative viability (BGJ398 + Navitoclax; first compound 0.1 µM)	relative viability (BGJ398 + Navitoclax; first compound 0.3162 µM)	relative viability (BGJ398 + Navitoclax; first compound 1 µM)	relative viability ([2]; first compound 0.02 µM)	relative viability ([2]; first compound 0.06325 µM)	relative viability ([2]; first compound 0.2 µM)	relative viability ([2]; first compound 0.6325 µM)	relative viability ([2]; first compound 2 µM)
NCI-H1651	0.804	0.876	0.922	0.806	0.841	0.504	0.502	0.6	0.588	0.483	0.988	1.18	0.978	0.961	0.991	0.774	0.734	0.911	0.796	0.75
NCI-H1666	0.735	0.908	0.965	0.911	0.75	0.912	0.927	0.968	0.984	0.785	0.949	1.01	0.91	0.967	0.842	1.03	0.879	0.986	0.909	0.932
NCI-H1734	0.591	0.657	0.54	0.42	0.381	0.846		0.907	0.767	0.556	0.836	0.878	0.81	0.832	0.826	0.891	0.674	0.808	0.844	0.681
NCI-H1755	0.723	0.751	0.725	0.638	0.554	0.681	0.695	0.832	0.858	0.818	0.984	1.04	0.986	0.968	1.07	0.807	0.942	0.923	0.897	0.864
NCI-H1793	0.442	0.311	0.273	0.305	0.312	0.635	0.616	0.765	0.676	0.679	0.417		0.391	0.251	0.326	0.633	0.601	0.721	0.634	0.642
NCI-H1915	0.282	0.31	0.29	0.221	0.17	0.578	0.525	0.636	0.468	0.499	0.73	0.786	0.774	0.77	0.766	1.11	1.12	1.15	1.09	1.04
NCI-H1944	0.371	0.452	0.403	0.387	0.382	0.515	0.511	0.551	0.536	0.512	0.986	1.05	1.08	0.884	1.05	0.814	0.78	0.885	0.795	0.903
NCI-H1975	0.324	0.515	0.391	0.31	0.25	0.683	0.734	0.735	0.731	0.674	1.11	1.09	1.12	1.19	1.05	0.904	1.03	0.992	0.866	0.84
NCI-H1993	0.447	0.524	0.596	0.441	0.595	0.734	0.843	1.08	0.767	0.008	1.02	0.836	0.909	1.02	0.882	0.694	0.817	0.72	0.748	0.578
NCI-H2009	0.261	0.265	0.219	0.23	0.244	0.659	0.716	0.714	0.685	0.703	1.21	1.19	1.18	1.23	1.17	1.21	1.22	1.3	1.28	1.12
NCI-H2023	0.615	0.566	0.473	0.522	0.541	0.675	0.51	0.739	0.632	0.441	0.953	1.01	1.01	1.02	0.993	0.714	0.832	0.765	0.781	0.51
NCI-H2085	0.498	0.525	0.505	0.705	0.502	0.729	0.716	0.799	0.781	0.748	1.09	1.13	1.15	1.23	1.05	0.966	1.09	0.902	1.03	0.882
NCI-H2087	0.142	0.22	0.188	0.197	0.189	0.536	0.742	0.58	0.646	0.469	0.847	0.973	0.83	0.974	0.741	1.12	0.974	0.992	0.975	0.931
NCI-H2126	0.609	0.531	0.615	0.629	0.567	0.666	0.825	0.843	0.801	0.462	0.809	0.831	0.888	0.839	0.902	0.917	0.987	1.2	1.11	0.745
NCI-H2170	0.941	0.937	1.02	0.91	0.866	0.732	0.583	0.846	0.776	0.878	0.505	0.572	0.586	0.671	0.765	0.962	1.12	1.05	1.01	1.02
NCI-H2228	0.42	0.694	0.503	0.348	0.419	0.844	0.821	0.616	0.572	0.719	0.728	1.04	0.998	0.893	0.867	0.834	1.05	0.961	0.841	0.749
